Experimental data taken from patent publication US6737383B1, “Herbicidal oxadiazolidines” (priority 1999, dated 2004).

Columns and labels:
[1] = test system: bedstraw; test: Test B pre/postemergence bedstraw; format: in vivo, Galium aparine
Outline: (§1)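 Herbicidal effect was estimated by eye on a ten-point control scale after plants spent twelve to sixteen days in a greenhouse following soil or foliar treatment. Foliar sprays targeted plants at one to four leaves; all doses were formulated in a non-phytotoxic solvent with surfactant.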

[2] = test system: blackgrass; test: Test B pre/postemergence blackgrass; format: in vivo, Alopecurus myosuroides
Outline: as §1

[3] = test system: surinam grass; test: Test B pre/postemergence surinam grass; format: in vivo, Brachiaria decumbens
Outline: as §1

[4] = test system: cocklebur; test: Test B pre/postemergence cocklebur; format: in vivo, Xanthium strumarium
Outline: as §1

[5] = test system: corn; test: Test B pre/postemergence corn; format: in vivo, Zea mays
Outline: as §1

[6] = test system: crabgrass; test: Test B pre/postemergence crabgrass; format: in vivo, Digitaria sanguinalis
Outline: as §1

[7] = test system: giant foxtail; test: Test B pre/postemergence giant foxtail; format: in vivo, Setaria faberii
Outline: as §1

[8] = test system: morningglory; test: Test B pre/postemergence morningglory; format: in vivo, Ipomoea hederacea
Outline: as §1

[9] = test system: pigweed; test: Test B pre/postemergence pigweed; format: in vivo, Amaranthus retroflexus
Outline: as §1

[10] = test system: rape; test: Test B pre/postemergence rape; format: in vivo, Brassica napus
Outline: as §1

[11] = test system: soybean; test: Test B pre/postemergence soybean; format: in vivo, Glycine max
Outline: as §1

[12] = test system: sugar beet; test: Test B pre/postemergence sugar beet; format: in vivo, Beta vulgaris
Outline: as §1

[13] = test system: velvetleaf; test: Test B pre/postemergence velvetleaf; format: in vivo, Abutilon theophrasti
Outline: as §1

[14] = test system: wheat; test: Test B pre/postemergence wheat; format: in vivo, Triticum aestivum
Outline: as §1

[15] = test system: wild oat; test: Test B pre/postemergence wild oat; format: in vivo, Avena fatua
Outline: as §1

[16] = test system: purple nutsedge; test: Test B pre/postemergence purple nutsedge; format: in vivo, Cyperus rotundus
Outline: as §1

[17] = Preemergence, Rate 62 g/ha, scale of 0 to 10 where 0 is no effect and 10 is complete control
[18] = Preemergence, Rate 125 g/ha, scale of 0 to 10 where 0 is no effect and 10 is complete control
[19] = Preemergence, Rate 250 g/ha, scale 0 to 10 (0 no effect, 10 complete control)
[20] = Preemergence, Rate 500 g/ha, scale of 0 to 10 where 0 is no effect and 10 is complete control
[21] = Preemergence, Rate 250 g/ha, scale 0 (no effect) to 10 (complete control)
[22] = Rate 250 g/ha, Postemergence, scale 0 to 10, 0 is no effect, 10 is complete control
[23] = Postemergence, Rate 62 g/ha, scale 0 to 10, 0 is no effect, 10 is complete control
[24] = Postemergence, Rate 125 g/ha, scale of 0 to 10 where 0 is no effect and 10 is complete control
[25] = Rate 500 g/ha, Postemergence, scale 0 to 10, 0 is no effect, 10 is complete control
[26] = Rate 500 g/ha, Preemergence, scale 0 to 10 (0 no effect, 10 complete control)

CC(C)N(C(=O)n1oc(=O)n(C(C)C(=O)N2CCOCC2)c1=O)c1ccc(Cl)cc1 (centres unmarked) [Compound 703]
Bedstraw plant response rating [1, 17]: 0
Plant response rating, Bedstraw [1, 18]: 0
Plant response rating, Bedstraw [1, 19]: 0
Plant response rating, Bedstraw [1, 20]: 0
Blackgrass plant response rating [2, 17]: 0
Plant response rating, Blackgrass [2, 18]: 3
Plant response rating, Blackgrass [2, 19]: 6
Plant response rating, Blackgrass [2, 20]: 8
B. signalgrass plant response rating [3, 17]: 2
Plant response rating, B. signalgrass [3, 18]: 3
Plant response rating, B. signalgrass [3, 19]: 3
Plant response rating, B. signalgrass [3, 20]: 8
Cocklebur plant response rating [4, 17]: 0
Plant response rating, Cocklebur [4, 18]: 0
Plant response rating, Cocklebur [4, 19]: 0
Plant response rating, Cocklebur [4, 20]: 0
Corn plant response rating [5, 17]: 0
Plant response rating, Corn [5, 18]: 0
Plant response rating, Corn [5, 19]: 0
Crabgrass plant response rating [6, 17]: 5
Plant response rating, Crabgrass [6, 18]: 8
Plant response rating, Crabgrass [6, 19]: 9
Giant foxtail plant response rating [7, 17]: 5
Plant response rating, Giant foxtail [7, 18]: 7
Morningglory plant response rating [8, 17]: 0
Plant response rating, Morningglory [8, 18]: 0
Redroot pigweed plant response rating [9, 17]: 0
Plant response rating, Redroot pigweed [9, 18]: 4
Rape plant response rating [10, 17]: 0
Plant response rating, Rape [10, 18]: 0
Soybean plant response rating [11, 17]: 0
Plant response rating, Soybean [11, 18]: 0
Sugarbeets plant response rating [12, 17]: 0
Plant response rating, Sugarbeets [12, 18]: 0
Velvetleaf plant response rating [13, 17]: 0
Plant response rating, Velvetleaf [13, 18]: 0
Wheat plant response rating [14, 17]: 0
Plant response rating, Wheat [14, 18]: 0
Wild oats plant response rating [15, 17]: 0
Plant response rating, Wild oats [15, 18]: 0
Nutsedge plant response rating [16, 17]: 0
Plant response rating, Nutsedge [16, 18]: 0

CC(C)N(C(=O)n1oc(=O)n(CC(F)F)c1=O)c1ccc(F)cc1F [Compound 711]
Bedstraw plant response rating [1, 17]: 2
Plant response rating, Bedstraw [1, 18]: 3
Bedstraw plant response rating [1, 21]: 6
Plant response rating, Bedstraw [1, 20]: 7
Bedstraw plant response rating [1, 22]: 8
Plant response rating, Blackgrass [2, 23]: 3
Blackgrass plant response rating [2, 24]: 7
Blackgrass plant response rating [2, 17]: 6
Plant response rating, Blackgrass [2, 18]: 6
Blackgrass plant response rating [2, 21]: 8
Plant response rating, Blackgrass [2, 20]: 9
Blackgrass plant response rating [2, 22]: 7
Blackgrass plant response rating [2, 25]: 7
Plant response rating, B. signalgrass [3, 23]: 4
B. signalgrass plant response rating [3, 24]: 6
B. signalgrass plant response rating [3, 17]: 2
Plant response rating, B. signalgrass [3, 18]: 2
B. signalgrass plant response rating [3, 21]: 7
Plant response rating, B. signalgrass [3, 20]: 8
B. signalgrass plant response rating [3, 22]: 6
B. signalgrass plant response rating [3, 25]: 8
Plant response rating, Cocklebur [4, 23]: 1
Cocklebur plant response rating [4, 24]: 1
Cocklebur plant response rating [4, 17]: 0
Plant response rating, Cocklebur [4, 18]: 0
Cocklebur plant response rating [4, 21]: 0
Plant response rating, Cocklebur [4, 20]: 0
Cocklebur plant response rating [4, 22]: 2
Cocklebur plant response rating [4, 25]: 7
Plant response rating, Corn [5, 23]: 0
Corn plant response rating [5, 24]: 0
Corn plant response rating [5, 17]: 0
Plant response rating, Corn [5, 18]: 0
Corn plant response rating [5, 21]: 0
Corn plant response rating [5, 22]: 0
Corn plant response rating [5, 25]: 4
Plant response rating, Crabgrass [6, 23]: 4
Crabgrass plant response rating [6, 24]: 8
Crabgrass plant response rating [6, 17]: 8
Plant response rating, Crabgrass [6, 18]: 9
Crabgrass plant response rating [6, 21]: 10
Crabgrass plant response rating [6, 22]: 9
Crabgrass plant response rating [6, 25]: 10
Plant response rating, Giant foxtail [7, 23]: 6
Giant foxtail plant response rating [7, 24]: 8
Giant foxtail plant response rating [7, 17]: 10
Plant response rating, Giant foxtail [7, 18]: 10
Giant foxtail plant response rating [7, 21]: 10
Giant foxtail plant response rating [7, 22]: 9
Giant foxtail plant response rating [7, 25]: 9
Plant response rating, Morningglory [8, 23]: 2
Morningglory plant response rating [8, 24]: 2
Morningglory plant response rating [8, 17]: 0
Plant response rating, Morningglory [8, 18]: 1
Morningglory plant response rating [8, 21]: 3
Morningglory plant response rating [8, 22]: 4
Morningglory plant response rating [8, 25]: 4
Plant response rating, Redroot pigweed [9, 23]: 3
Redroot pigweed plant response rating [9, 24]: 7
Redroot pigweed plant response rating [9, 17]: 7
Plant response rating, Redroot pigweed [9, 18]: 7
Redroot pigweed plant response rating [9, 21]: 9
Redroot pigweed plant response rating [9, 22]: 9
Redroot pigweed plant response rating [9, 25]: 10
Plant response rating, Rape [10, 23]: 0
Rape plant response rating [10, 24]: 0
Rape plant response rating [10, 17]: 1
Plant response rating, Rape [10, 18]: 6
Rape plant response rating [10, 21]: 7
Rape plant response rating [10, 22]: 2
Rape plant response rating [10, 25]: 4
Plant response rating, Soybean [11, 23]: 1
Soybean plant response rating [11, 24]: 4
Soybean plant response rating [11, 17]: 0
Plant response rating, Soybean [11, 18]: 0
Soybean plant response rating [11, 21]: 0
Soybean plant response rating [11, 22]: 5
Soybean plant response rating [11, 25]: 6
Plant response rating, Sugarbeets [12, 23]: 1
Sugarbeets plant response rating [12, 24]: 2
Sugarbeets plant response rating [12, 17]: 5
Plant response rating, Sugarbeets [12, 18]: 6
Sugarbeets plant response rating [12, 21]: 8
Sugarbeets plant response rating [12, 22]: 2
Sugarbeets plant response rating [12, 25]: 3
Plant response rating, Velvetleaf [13, 23]: 3
Velvetleaf plant response rating [13, 24]: 5
Velvetleaf plant response rating [13, 17]: 4
Plant response rating, Velvetleaf [13, 18]: 6
Velvetleaf plant response rating [13, 21]: 6
Velvetleaf plant response rating [13, 22]: 6
Velvetleaf plant response rating [13, 25]: 6
Plant response rating, Wheat [14, 23]: 0
Wheat plant response rating [14, 24]: 0
Wheat plant response rating [14, 17]: 2
Plant response rating, Wheat [14, 18]: 6
Wheat plant response rating [14, 21]: 8
Wheat plant response rating [14, 22]: 3
Wheat plant response rating [14, 25]: 5
Plant response rating, Wild oats [15, 23]: 0
Wild oats plant response rating [15, 24]: 0
Wild oats plant response rating [15, 17]: 7
Plant response rating, Wild oats [15, 18]: 7
Wild oats plant response rating [15, 21]: 9
Wild oats plant response rating [15, 22]: 2
Wild oats plant response rating [15, 25]: 4
Plant response rating, Nutsedge [16, 23]: 0
Nutsedge plant response rating [16, 24]: 0
Nutsedge plant response rating [16, 17]: 0
Nutsedge plant response rating [16, 21]: 0
Nutsedge plant response rating [16, 22]: 3
Nutsedge plant response rating [16, 25]: 5

COC(CCl)n1c(=O)on(C(=O)N(c2ccccc2)C(C)C)c1=O (centres unmarked) [Compound 735]
Bedstraw plant response rating [1, 17]: 0
Plant response rating, Bedstraw [1, 18]: 0
Bedstraw plant response rating [1, 21]: 0
Bedstraw plant response rating [1, 26]: 0
Blackgrass plant response rating [2, 17]: 8
Plant response rating, Blackgrass [2, 18]: 10
Blackgrass plant response rating [2, 21]: 10
Blackgrass plant response rating [2, 26]: 10
B. signalgrass plant response rating [3, 17]: 7
Plant response rating, B. signalgrass [3, 18]: 8
B. signalgrass plant response rating [3, 21]: 9
B. signalgrass plant response rating [3, 26]: 10
Cocklebur plant response rating [4, 17]: 0
Plant response rating, Cocklebur [4, 18]: 0
Cocklebur plant response rating [4, 21]: 0
Cocklebur plant response rating [4, 26]: 0
Corn plant response rating [5, 17]: 0
Plant response rating, Corn [5, 18]: 6
Corn plant response rating [5, 21]: 8
Corn plant response rating [5, 26]: 9
Crabgrass plant response rating [6, 17]: 10
Plant response rating, Crabgrass [6, 18]: 10
Crabgrass plant response rating [6, 21]: 10
Crabgrass plant response rating [6, 26]: 10
Giant foxtail plant response rating [7, 17]: 9
Plant response rating, Giant foxtail [7, 18]: 10
Giant foxtail plant response rating [7, 21]: 10
Giant foxtail plant response rating [7, 26]: 10
Morningglory plant response rating [8, 17]: 0
Plant response rating, Morningglory [8, 18]: 0
Morningglory plant response rating [8, 21]: 2
Morningglory plant response rating [8, 26]: 2
Redroot pigweed plant response rating [9, 17]: 5
Plant response rating, Redroot pigweed [9, 18]: 7
Redroot pigweed plant response rating [9, 21]: 8
Redroot pigweed plant response rating [9, 26]: 9
Rape plant response rating [10, 17]: 1
Plant response rating, Rape [10, 18]: 6
Rape plant response rating [10, 21]: 8
Rape plant response rating [10, 26]: 8
Soybean plant response rating [11, 17]: 0
Plant response rating, Soybean [11, 18]: 0
Soybean plant response rating [11, 21]: 0
Soybean plant response rating [11, 26]: 0
Sugarbeets plant response rating [12, 17]: 0
Plant response rating, Sugarbeets [12, 18]: 2
Sugarbeets plant response rating [12, 21]: 6
Sugarbeets plant response rating [12, 26]: 7
Velvetleaf plant response rating [13, 17]: 0
Plant response rating, Velvetleaf [13, 18]: 0
Velvetleaf plant response rating [13, 21]: 3
Velvetleaf plant response rating [13, 26]: 3
Wheat plant response rating [14, 17]: 0
Plant response rating, Wheat [14, 18]: 0
Wheat plant response rating [14, 26]: 2
Wild oats plant response rating [15, 17]: 6
Plant response rating, Wild oats [15, 18]: 8
Wild oats plant response rating [15, 21]: 8
Wild oats plant response rating [15, 26]: 10
Nutsedge plant response rating [16, 17]: 0
Nutsedge plant response rating [16, 21]: 0
